According to patent US20140004209A1, “AUTOPHAGY INDUCER AND INHIBITOR COMBINATION THERAPY FOR THE TREATMENT OF NEOPLASMS” (GENENTECH, INC., priority 2010, published 2014):
Entries after “also recorded” stand apart in the source; their conditions may differ. Read-outs that look alike come from different tables or passages of the source.

Experiments:
[1] = tested on: MDA-361.1 (PI2-K mut (E545K), Her2+, HR+ and Luminal) cell line; test: CellTiter-Glo growth inhibition, III-4 and CQ combination; assay type: cell-based; details: 1:12.5 ratio
Description: (§1) FIG. 26B depicts the CI (combination index) by using bar graphs for data obtained by CellTiter-Glo assay at day 4 of treatment with 10% serum.
FIGS. 28A-B depicts data for the MDA-361.1 (PI2-K mut (E545K), Her2+, HR+ and Luminal) cell line.

[2] = tested on: multiple cell lines; test: ED50 of CQ, AKTi and combination by CellTiter-Glo in multiple cell lines; assay type: cell-based; details: day 4, 10% serum
Description: as §1

[3] = Cell death in combination with CQ (FIG. 17); assay type: cell-based
[4] = tested on: U87MG (PTEN-, PI3K mut (1391M)) cell line; test: CellTiter-Glo growth inhibition, III-4 and CQ combination; assay type: cell-based, human; details: 1:1.5 ratio
Protocol: as §1
FIGS. 30A-B depicts data for the U87MG (PTEN-, PI3K mut (1391M)) cell line.

[5] = tested on: MDA-MB-231 (Kras, Braf, p53 mut, Triple- and Basal) cell line; test: as above; assay type: cell-based
Description: as §1

[6] = tested on: PC3 cells; test: Microarray analysis of autophagy gene expression in PC3 cells; assay type: cell-based, human; details: 1 or 5 μM for 6 or 24 hours, normalized to DMSO
Protocol: PC3 cells were induced to express shRNA to indicated Akt isoforms for 72 hours by Doxycycline, RNA was extracted from both Dox treated (Dox+) or untreated control (Dox−) cells. Microarray analysis was carried out using Affymetrix chips. Ratios of the expression levels of each autophagy gene from Dox+ and Dox− samples are shown. Data are mean values from 3 independent experiments.
RNA was extracted from the cells. Microarray analysis was carried out using Affymetrix chips. Expression levels of each autophagy gene are normalized to the DMSO controls. Data are mean values from 3 independent experiments.

[7] = tested on: PC3 (PTEN-, p53- and Al) cell line; test: CellTiter-Glo growth inhibition, III-4 and CQ combination; assay type: cell-based, human; details: 1:25 ratio
Description: as §1
FIGS. 27A-B depicts data for the PC3 (PTEN-, p53- and Al) cell line.

[8] = tested on: class I PI3Ks and mTOR; details: cited from earlier work
[9] = tested on: PC3 cells; test: PC3 cell viability and cell death (PI exclusion, annexin V, caspase-3/7); assay type: cell-based, human; details: 0.5 μM III-5, 10 μM CQ, 0.5% FBS
Protocol: Cell viability and cell cycle analysis. Cell number and viability was measured using trypan blue exclusion assay using a Vi-Cell Analyzer (Beckman Coulter), or labeled with 1 μg/ml PI in PBS/1% BSA followed by cytofluorometric analysis with a fluorescence-activated cell sorter (FACS) (Becton Dickinson). FITC-conjugated Annexin V was used for the assessment of phosphatidylserine exposure by FACS analysis. Caspase activation was analyzed using a Caspase-Glo 3/7 Assay kit (Promega). For cell cycle analysis, cells were fixed with drop-wise addition of chilled 70% ethanol, washed with PBS and resuspended in staining solution containing 50 μg/ml PI and 60 units of RNAse A. DNA content was analyzed by flow cytometry using the FlowJo and ModFit software (Becton Dickinson).

[10] = tested on: PC3 cells; test: Autophagy markers in PC3 cells (EM AVs, GFP-LC3, LC3-II/LC3-I, MDC, AO); assay type: cell-based, human
[11] = molecular target: class III PI3K (Homo sapiens, UniProt Q8NEB9); details: cited from earlier work
class III PI3K, sequence (Q8NEB9 whole entry): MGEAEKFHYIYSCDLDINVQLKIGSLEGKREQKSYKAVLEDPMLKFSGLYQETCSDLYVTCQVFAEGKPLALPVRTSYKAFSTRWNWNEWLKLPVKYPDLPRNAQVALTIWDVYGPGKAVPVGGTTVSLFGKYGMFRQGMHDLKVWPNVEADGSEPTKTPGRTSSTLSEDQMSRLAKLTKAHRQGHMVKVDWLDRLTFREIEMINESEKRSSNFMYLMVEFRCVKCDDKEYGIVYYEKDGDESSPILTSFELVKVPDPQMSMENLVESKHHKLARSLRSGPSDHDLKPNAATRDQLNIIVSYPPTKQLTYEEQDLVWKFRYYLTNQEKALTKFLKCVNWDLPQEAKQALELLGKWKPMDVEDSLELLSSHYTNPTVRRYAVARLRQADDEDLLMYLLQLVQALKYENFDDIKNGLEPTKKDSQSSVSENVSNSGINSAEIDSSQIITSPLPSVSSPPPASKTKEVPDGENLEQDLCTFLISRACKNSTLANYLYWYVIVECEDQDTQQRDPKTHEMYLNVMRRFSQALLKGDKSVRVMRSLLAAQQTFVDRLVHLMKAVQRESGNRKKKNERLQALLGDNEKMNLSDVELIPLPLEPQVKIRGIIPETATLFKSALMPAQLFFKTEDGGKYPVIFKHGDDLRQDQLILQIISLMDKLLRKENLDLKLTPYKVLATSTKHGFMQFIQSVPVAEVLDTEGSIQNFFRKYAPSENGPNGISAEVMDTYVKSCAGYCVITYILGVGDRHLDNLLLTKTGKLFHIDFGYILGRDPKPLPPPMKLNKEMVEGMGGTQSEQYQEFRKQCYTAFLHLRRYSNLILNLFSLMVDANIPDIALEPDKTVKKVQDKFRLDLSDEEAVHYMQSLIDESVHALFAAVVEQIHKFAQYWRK

| Structure (SMILES) | growth inhibition, III-4 and CQ combination vs single agents [1] | ED50 of combination with CQ vs single agents [2] | interaction with CQ on cell death [3] | growth inhibition, III-4 and CQ combination vs single agents [4] | growth inhibition, III-4 and CQ combination vs single agents [5] | autophagy gene expression [6] | growth inhibition, III-4 and CQ combination vs single agents [7] | inhibition of the class I PI3Ks and mTOR [8] | cell death, III-5 (PI-103) in combination with CQ [9] | cell death, III-5 (PI-103) in combination with CQ ([9]; listed as PI-103) | induction of AV accumulation / autophagy, agent alone [10] | MDC+ vacuoles, III-5 in combination with CQ ([10]; 0.5 μM III-5, 10 μM CQ, 48 h) | induction of AV accumulation / autophagy, agent alone ([10]; listed as PI-103) | more potent on class I than class III PI3K [11] | less potent on the class III PI3K ([11]; relative to class I PI3Ks and mTOR) |
| --- | --- | --- | --- | --- | --- | --- | --- | --- | --- | --- | --- | --- | --- | --- | --- |
| CC(C)NC[C@@H](C(=O)N1CCN(c2ncnc3c2[C@H](C)C[C@H]3O)CC1)c1ccc(Cl)cc1 [III-4, (S)-2-(4-chlorophenyl)-1-(4-((5R,7R)-7-hydroxy-5-methyl-6,7-dihydro-5H-cyclopenta[d]pyrimidin-4-yl)piperazin-1-yl)-3-(isopropylamino)propan-1-one] | the combination inhibits growth in the cell line at lower concentrations of III-4 than either III-4 alone or CQ alone | significantly lowers the ED50 for both the AKTi and CQ | synergize with CQ to accelerate cell death | the combination inhibits growth in the cell line at lower concentrations of III-4 than either III-4 alone or CQ alone | the combination inhibits growth in the cell line at lower concentrations of III-4 than either III-4 alone or CQ alone | induce autophagy gene expression | the combination inhibits growth in the cell line at lower concentrations of III-4 than either III-4 alone or CQ alone | – | – | – | – | – | – | – | – |
| Oc1cccc(-c2nc(N3CCOCC3)c3oc4ncccc4c3n2)c1 [III-5] | – | – | – | – | – | – | – | nanomolar concentrations | CQ accelerated cell death in combination with III-5; also recorded: combination with CQ accelerated the death of cells | significantly accelerated death rate | potent at inducing the accumulation of AVs | CQ dramatically increased the size and number of MDC+ vacuoles | induced overt autophagy | 1,000 × | > 1,000 fold |
